Experimental findings from ChEMBL document CHEMBL3233002, “Discovery of potent Keap1-Nrf2 protein-protein interaction inhibitor based on molecular binding determinants analysis” (J Med Chem, 2014) are described below.

One series concerns HCT-116. The experiment in a line: Cytotoxicity against human HCT116 cells at 10 uM. The settings on record: hct-116, 10 µM. In kind it is cell-based.
The nature of series [1]: Dissociation constant, pKa of the compound. In kind it is physicochemical.
Series [2] in a line: Partition coefficient, log D of the compound at pH 7.4. In kind it is physicochemical. The settings on record: octanol/water.
In series [3] the target is Kelch-like ECH-associated protein 1 (Homo sapiens) (UniProt Q14145). The series is described as follows: Inhibition of Keap1-Nrf2 interaction in human HepG2-ARE-C8 cells assessed as activation of Nrf2-ARE luciferase activity at 20 uM after 12 hrs relative to control. In kind it is cell-based.
For series [4] the target is unchanged. The experiment in a line: Inhibition of Keap1-Nrf2 interaction in human HepG2-ARE-C8 cells assessed as activation of Nrf2-ARE luciferase activity at 40 uM after 12 hrs relative to control. In kind it is cell-based.
Series [5] has the same target. The experiment in a line: Inhibition of Keap1-Nrf2 interaction in human HepG2-ARE-C8 cells assessed as activation of Nrf2-ARE luciferase activity at 80 uM after 12 hrs relative to control. Format: cell-based.

Chain of Kelch-like ECH-associated protein 1 (Homo sapiens) (Q14145 whole entry): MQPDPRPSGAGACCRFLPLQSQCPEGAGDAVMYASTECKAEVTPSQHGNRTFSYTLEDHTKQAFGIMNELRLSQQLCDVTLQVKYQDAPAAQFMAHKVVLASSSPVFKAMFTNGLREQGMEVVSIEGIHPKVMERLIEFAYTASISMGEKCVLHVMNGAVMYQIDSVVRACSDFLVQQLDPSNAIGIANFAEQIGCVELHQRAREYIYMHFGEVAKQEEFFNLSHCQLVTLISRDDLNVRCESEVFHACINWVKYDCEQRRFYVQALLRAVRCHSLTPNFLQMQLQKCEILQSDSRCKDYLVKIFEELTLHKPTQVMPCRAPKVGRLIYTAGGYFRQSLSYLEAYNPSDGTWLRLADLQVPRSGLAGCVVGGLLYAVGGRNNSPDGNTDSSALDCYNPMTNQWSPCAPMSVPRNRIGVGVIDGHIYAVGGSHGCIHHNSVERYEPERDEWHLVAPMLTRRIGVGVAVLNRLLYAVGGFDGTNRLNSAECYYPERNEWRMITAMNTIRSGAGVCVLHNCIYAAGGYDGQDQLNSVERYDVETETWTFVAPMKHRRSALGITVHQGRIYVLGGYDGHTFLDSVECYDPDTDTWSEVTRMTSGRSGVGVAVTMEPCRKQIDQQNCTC

On to `COc1ccc(S(=O)(=O)N(CC(=O)O)c2ccc(N(CC(=O)O)S(=O)(=O)c3ccc(OC)cc3)c3ccccc23)cc1`, for which the Activity entry in the series on HCT-116 is recorded as “Non-toxic”. Moreover, the pKa (commonly the pH at which an ionisable group is half protonated) in series [1] is 4.62. For the same compound, the logD (in general, the decadic logarithm of the distribution of all forms, ionised or not, between an organic phase and buffer at a given pH) in series [2] amounted to 1.71.

Regarding `CC(C)(C)c1cc(O)ccc1O`, the fold change (FC) was found to be 2.22 in series [3], 3.81 in series [4] and 6.21 in series [5].

Regarding `C[S+]([O-])CCCCN=C=S` (configuration not stated), the fold change (FC) in series [3] was 18.1.
